According to PubChem BioAssay AID256 (DTP/NCI, 2004):
“And” between values parts separate entries of the source, which are not always exact repeats. Equal entries are not always repeated. Toxic doses and inconclusive results are not listed. Rule for the calls: active = survival T/C of 150% or more; inactive = T/C below 125% in these data.

Test system: CD2F1 mice, L1210 leukemia ip, survival T/C
Assay: NCI In Vivo Anticancer Drug Screen. Data for tumor model L1210 Leukemia (intraperitoneal) in CD2F1 (CDF1) mice
Settings: higher = longer survival
Procedure, shortened: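 Transplantable tumor in mice; compound-treated vs vehicle-treated groups. Read-out = treated/control ratio of the measured endpoint.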

[1] = endpoint: mean survival time, dose: 100.0 mg/kg/injection, schedule: Q04DX003 (ip), vehicle: saline with Tween-80
[2] = endpoint: mean survival time, dose: 200.0 mg/kg/injection, schedule: Q04DX003 (ip), vehicle: saline with Tween-80
[3] = endpoint: mean survival time, dose: 400.0 mg/kg/injection, schedule: Q04DX003 (ip), vehicle: saline with Tween-80
[4] = endpoint: mean survival time, dose: 50.0 mg/kg/injection, schedule: Q01DX009 (ip), vehicle: Klucel (hydroxypropylcellulose) (HPC)
[5] = endpoint: mean survival time, dose: 100.0 mg/kg/injection, schedule: Q01DX009 (ip), vehicle: Klucel (hydroxypropylcellulose) (HPC)
[6] = endpoint: mean survival time, dose: 200.0 mg/kg/injection, schedule: Q01DX009 (ip), vehicle: Klucel (hydroxypropylcellulose) (HPC)
[7] = endpoint: mean survival time, dose: 100.0 mg/kg/injection, schedule: Q01DX009 (ip), vehicle: saline with Tween-80
[8] = endpoint: mean survival time, dose: 200.0 mg/kg/injection, schedule: Q01DX009 (ip), vehicle: saline with Tween-80
[9] = endpoint: mean survival time, dose: 100.0 mg/kg/injection, schedule: Q04DX002 (ip), vehicle: saline with Tween-80
[10] = endpoint: mean survival time, dose: 200.0 mg/kg/injection, schedule: Q04DX002 (ip), vehicle: saline with Tween-80
[11] = endpoint: mean survival time, dose: 400.0 mg/kg/injection, schedule: Q04DX002 (ip), vehicle: saline with Tween-80
[12] = endpoint: mean survival time, dose: 25.0 mg/kg/injection, schedule: Q01DX009 (ip), vehicle: saline
[13] = endpoint: mean survival time, dose: 50.0 mg/kg/injection, schedule: Q01DX009 (ip), vehicle: saline
[14] = endpoint: mean survival time, dose: 400.0 mg/kg/injection, schedule: Q01DX009 (ip), vehicle: saline with Tween-80
[15] = endpoint: mean survival time, dose: 100.0 mg/kg/injection, schedule: Q01DX009 (ip), vehicle: saline
[16] = endpoint: mean survival time, dose: 200.0 mg/kg/injection, schedule: Q01DX009 (ip), vehicle: saline

Measured: T/C

CCCCCC(CN(C)C)C(=O)/C=C\c1ccc(Cl)cc1Cl (stereo not drawn)
inactive: endpoint: mean survival time, dose: 12.5 mg/kg/injection, schedule: Q01DX009 (ip), vehicle: alcohol 102 % of control | endpoint: mean survival time, dose: 25.0 mg/kg/injection, schedule: Q01DX009 (ip), vehicle: alcohol 102 % of control

CC(C)SC(C(=O)O)(c1ccccc1)c1ccccc1
inactive: endpoint: mean survival time, dose: 75.0 mg/kg/injection, schedule: Q01DX001 (ip), vehicle: other 100 % of control | endpoint: mean survival time, dose: 150.0 mg/kg/injection, schedule: Q01DX001 (ip), vehicle: other 98 % of control | endpoint: mean survival time, dose: 300.0 mg/kg/injection, schedule: Q01DX001 (ip), vehicle: other 90 % of control

O=CCCOCCCl
inactive: [1] 103 % of control | [2] 95 % of control | [3] 100 % of control

O=Nc1c(-c2ccccc2)n(O)[n+]([O-])c1-c1ccccc1
inactive: [4] 89 % of control | [5] 89 % of control | [6] 97 % of control

O=[N+]([O-])c1ccc(N=Nc2ccccc2)cc1
inactive: [1] 90 % of control | [2] 92 % of control | [3] 92 % of control

C=C1[C@@H](O)[C@]2(O)OC[C@@]34[C@H]1[C@@H](OC(=O)C(C)CC)C(=O)O[C@@H]3C[C@H]1C(C)=CC(=O)[C@@H](O)[C@]1(C)[C@@H]24 (stereo partly drawn)
inactive: endpoint: mean survival time, dose: 0.25 mg/kg/injection, schedule: Q01DX009 (ip), vehicle: saline with Tween-80 102 % of control | endpoint: mean survival time, dose: 0.5 mg/kg/injection, schedule: Q01DX009 (ip), vehicle: saline with Tween-80 105 % of control | endpoint: mean survival time, dose: 1.0 mg/kg/injection, schedule: Q01DX009 (ip), vehicle: saline with Tween-80 105 % of control | endpoint: mean survival time, dose: 2.0 mg/kg/injection, schedule: Q01DX009 (ip), vehicle: saline with Tween-80 108 % of control

COc1ccc(NC(=O)C(Cl)Cl)ccc1=O
inactive: [7] 96 % of control | [1] 97 % of control | [8] 95 % of control | [2] 92 % of control | [3] 98 % of control

CC1(CCC2(C)OCCO2)OCCO1
inactive: [9] 93 % of control | [10] 101 % of control | [11] 93 % of control

Nc1ncnc2[nH]c(=O)[nH]c12
inactive: endpoint: mean survival time, dose: 12.5 mg/kg/injection, schedule: Q01DX009 (ip), vehicle: saline 101 % of control | [12] 114 % of control | [13] 105 % of control | endpoint: mean survival time, dose: 100.0 mg/kg/injection, schedule: Q04DX003 (ip), vehicle: saline 108 % of control | endpoint: mean survival time, dose: 200.0 mg/kg/injection, schedule: Q04DX003 (ip), vehicle: saline 112 % of control | endpoint: mean survival time, dose: 400.0 mg/kg/injection, schedule: Q04DX003 (ip), vehicle: saline 108 % of control

O=C(NC(C(=O)NC(C(=O)O)C1CC(Cl)=NO1)C1CC(Cl)=NO1)OCC1c2ccccc2-c2ccccc21 (stereo not drawn)
inactive: endpoint: mean survival time, dose: 1.6 mg/kg/injection, schedule: Q01DX009 (ip), vehicle: saline 122 % of control | endpoint: mean survival time, dose: 3.1 mg/kg/injection, schedule: Q01DX009 (ip), vehicle: saline 116 % of control | [12] 87 % of control

CCc1cccc(OS(=O)(=O)c2cccc([N+](=O)[O-])c2)c1
inactive: [7] 98 % of control | [1] 103 % of control | [8] 102 % of control | [2] 103 % of control | [14] 93 % of control | [3] 101 % of control

CN(C)N=Nc1ccc(SC#N)cc1C(N)=O
inactive: endpoint: mean survival time, dose: 18.8 mg/kg/injection, schedule: Q01DX009 (ip), vehicle: Klucel (hydroxypropylcellulose) (HPC) 93 % of control and 103 % of control | endpoint: mean survival time, dose: 37.5 mg/kg/injection, schedule: Q01DX009 (ip), vehicle: Klucel (hydroxypropylcellulose) (HPC) 97 % of control and 106 % of control | endpoint: mean survival time, dose: 75.0 mg/kg/injection, schedule: Q01DX009 (ip), vehicle: Klucel (hydroxypropylcellulose) (HPC) 107 % of control and 108 % of control | endpoint: mean survival time, dose: 150.0 mg/kg/injection, schedule: Q01DX009 (ip), vehicle: Klucel (hydroxypropylcellulose) (HPC) 88 % of control and 110 % of control

Brc1ccc2[nH]c3c(c2c1)CSc1ccccc1-3
inactive: [5] 104 % of control | [6] 108 % of control | endpoint: mean survival time, dose: 400.0 mg/kg/injection, schedule: Q01DX009 (ip), vehicle: Klucel (hydroxypropylcellulose) (HPC) 112 % of control

CCN(CC)CCCOC(=O)c1ccc(N)cc1
inactive: endpoint: mean survival time, dose: 12.5 mg/kg/injection, schedule: Q04DX003 (ip), vehicle: saline 107 % of control | endpoint: mean survival time, dose: 25.0 mg/kg/injection, schedule: Q04DX003 (ip), vehicle: saline 105 % of control | endpoint: mean survival time, dose: 50.0 mg/kg/injection, schedule: Q04DX003 (ip), vehicle: saline 101 % of control

CC(CN1c2ccccc2Sc2ccccc21)N(C)CCO (stereo not drawn)
inactive: endpoint: mean survival time, dose: 50.0 mg/kg/injection, schedule: Q01DX001 (ip), vehicle: saline 101 % of control | endpoint: mean survival time, dose: 100.0 mg/kg/injection, schedule: Q01DX001 (ip), vehicle: saline 101 % of control | endpoint: mean survival time, dose: 200.0 mg/kg/injection, schedule: Q01DX001 (ip), vehicle: saline 97 % of control | endpoint: mean survival time, dose: 400.0 mg/kg/injection, schedule: Q01DX001 (ip), vehicle: saline 97 % of control

COc1cc(C=Nc2cccc3ccccc23)cc(OC)c1OC
inactive: endpoint: mean survival time, dose: 100.0 mg/kg/injection, schedule: Q01DX001 (ip), vehicle: saline with Tween-80 98 % of control | [7] 88 % of control and 93 % of control | [9] 89 % of control and 100 % of control | [1] 103 % of control | endpoint: mean survival time, dose: 200.0 mg/kg/injection, schedule: Q01DX001 (ip), vehicle: saline with Tween-80 95 % of control | [8] 91 % of control and 96 % of control | [10] 89 % of control and 96 % of control | [2] 96 % of control | endpoint: mean survival time, dose: 400.0 mg/kg/injection, schedule: Q01DX001 (ip), vehicle: saline with Tween-80 88 % of control | [14] 92 % of control and 95 % of control | [11] 96 % of control and 100 % of control | [3] 92 % of control

COC(=O)Nc1nc2ccc(SC)cc2c(=O)[nH]1
inactive: endpoint: median survival time, dose: 25.0 mg/kg/injection, schedule: Q01DX009 (ip), vehicle: Klucel (hydroxypropylcellulose) (HPC) 98 % of control | endpoint: median survival time, dose: 50.0 mg/kg/injection, schedule: Q01DX009 (ip), vehicle: Klucel (hydroxypropylcellulose) (HPC) 98 % of control | endpoint: median survival time, dose: 100.0 mg/kg/injection, schedule: Q01DX009 (ip), vehicle: Klucel (hydroxypropylcellulose) (HPC) 98 % of control | endpoint: median survival time, dose: 200.0 mg/kg/injection, schedule: Q01DX009 (ip), vehicle: Klucel (hydroxypropylcellulose) (HPC) 112 % of control

Cc1ccnc(NS(=O)(=O)c2ccc(N)cc2)n1
inactive: [15] 100 % of control | [16] 96 % of control | endpoint: mean survival time, dose: 400.0 mg/kg/injection, schedule: Q01DX009 (ip), vehicle: saline 97 % of control

N#CC(c1c[nH]c2ccccc12)N1CCOCC1 (stereo not drawn)
inactive: endpoint: mean survival time, dose: 25.0 mg/kg/injection, schedule: Q04DX002 (ip), vehicle: saline with Tween-80 105 % of control | endpoint: mean survival time, dose: 50.0 mg/kg/injection, schedule: Q04DX002 (ip), vehicle: saline with Tween-80 100 % of control

Nc1c(Cl)c(Cl)nc(C(=O)O)c1Cl
inactive: endpoint: mean survival time, dose: 25.0 mg/kg/injection, schedule: Q01DX009 (ip), vehicle: Klucel (hydroxypropylcellulose) (HPC) 98 % of control | endpoint: mean survival time, dose: 25.0 mg/kg/injection, schedule: Q01DX009 (ip), vehicle: saline with Tween-80 100 % of control | [4] 98 % of control | endpoint: mean survival time, dose: 50.0 mg/kg/injection, schedule: Q01DX009 (ip), vehicle: saline with Tween-80 94 % of control | [13] 97 % of control | [5] 90 % of control | [7] 97 % of control | [15] 97 % of control | [6] 100 % of control | [8] 97 % of control | [16] 101 % of control | [14] 101 % of control
